Experimental data taken from patent publication US6858589B2, “Methods of and compositions for potentiating the action of agents active on cell wall sites of the susceptible bacteria” (priority 1996, dated 2005).

Legend:
[1] = system: blood culture isolate of cMRSA; experiment: Kill kinetics and regrowth patterns of cMRSA exposed to gentamicin profiles and constant beta-lactam; type: cell-based, Staphylococcus aureus
Description: FIGS. 5a and 5b Kill kinetics and regrowth patterns of a clinical isolate of cMRSA.
The CMRSA isolate was cultured in the presence of gentamicin (Delta West, Bentleigh, Australia). An overnight culture of cMRSA in brain heart infusion broth (BHIB) (Oxoid, Bainstoke, England) was diluted to 10^7 CFU/ml in 0.1% peptone water (Oxoid, Bainstoke, England). A 1 ml sample of the 10^7 CFU/ml culture was added to the experimental culture broth, resulting in an initial density of 10^6 CFU/ml. In vitro concentration-time modeling of clinical plasma gentamicin concentration-time profiles assumed linear extrapolation of in vivo data as reported previously.^18 (Bastone et al Antimicrobial Agents and Chemotherapy 37(4): 914-917, 1993). […] Other profiles were constructed by linear extrapolation of these profiles and included 7 and 16 mg/l bolus and infusion profiles. Colony counts were performed at times 0, 0.5, 2.5, 4.5, 6.5, 8.5, 10.5, 24.5 and 48.5 hours for bolus profiles and times 0, 1, 3, 5, 7, 9, 11, 25 and 49 hours for infusion profiles.
In the experiments involving cephazolin the concentration was maintained at 4 mg/l in the BHIB for the entire 48.5 hours. For the experiments involving flucloxacillin the concentration of flucloxacillin was maintained at 2 mg/l for 48.5 hours. Colony counts were performed at times 0, 0,5, 2.5, 4.5, 6.5, 8.5, 10.5, 24.5 and 48.5 hours. […] These included cMRSA in a drug free broth, cMRSA exposed to a bolus profile of gentamicin with a target Cpeak 30 of 6 mg/l only, cMRSA exposed to […] of flucloxacillin only.
All experiments involved six replicates. Gentamicin concentrations were measured at times 0, 0.16, 0.33, 0.5, 2.5, 4.5, 6.5, 8.5, 10.5, 24.5 and 48.5 hours. Gentamicin assay concentrations were determined by fluorescence polarisation immunoassay (AxSYM, Abbot, Ill., U.S.A.) which has a threshold for detection of 0.3 mg/liter. […] (Gibaldi et al, pharmaceutics 2nd edn, 1982).
The blood culture cMRSA isolate was exposed to gentamicin in vitro simulating an in vivo bolus dosing regimen with varying 30 minute post dose concentrations of gentamicin. The same organism was then exposed to gentamicin in vitro simulating an in vivo bolus dosing regime with a 30 minute post dose concentration of 6 mg/l and constant concentration of 4 mg/l of cephazolin or 2 mg/l of flucloxacillin for 48 hours.

[2] = Gentamicin concentration-time profile measured in the in vitro culture medium
Description: (§1) The aminoglycoside reached a peak concentration of 4 mg/l 30 minutes post-dose and was removed from the E. coli culture by washing. Medium containing 0, 2, 2.5 and 3 mg/l gentamicin was reconstituted and added to the culture at 1 hour after initial exposure to the aminoglycoside (n=6).
(§2) With each antibiotic, concentration-time profiles similar to those observed in the blood of clinical patients following conventional intravenous dosing of an aminoglycoside (gentamicin) and pump-driven profiles of gentamicin and cephalosporin (cephazolin) were attained. The concentration-time profiles for each drug class have the general form shown in FIG. IA and FIG. IIIA of the accompanying drawings. Additionally a gentamicin profile of the form shown in FIG. IIIA was generated, which reached a peak of 12 mg/l over 3 hours, was maintained at 12 mg/l for a further hour, then was reconstituted to a range of steady-state concentrations (0, 0.5, 1.0, 2.0, 3.0, 4.0 mg/l) to yield the experimental results shown in Table 4.

E. coli NCTC 10418 = experiment: E. coli counts after gentamicin profile (peak 4 mg/l, then reconstituted maintained concentration); type: cell-based, Escherichia coli
Description: as §1
The experimental work described herein involved testing bacterial response while changing aminoglycoside concentrations with time in the test tube, and mimics closely measurements made in man under clinical conditions (Bastone E B, Li S C, Ioannides-Demos L L, Spicer J., McLean A J, “Kill kinetics and regrowth patterns of E. coli exposed to gentamicin concentration-time profiles simulating in vivo bolus or infusion dosing”, Antimicrob Agents Chemother. 37:914-917, 1993).
as §2, with “Table 4. […]” for “Table 4.”

[3] = in vitro profile: peak 4 mg/liter, reconstituted to 3.0 mg/liter at 1 hr, maintained 0 hr (control)
[4] = in vitro profile: peak 4 mg/liter, reconstituted to 3.0 mg/liter at 1 hr, maintained 2 hr
[5] = in vitro profile: peak 4 mg/liter, reconstituted to 3.0 mg/liter at 1 hr, maintained 4 hr
[6] = in vitro profile: peak 4 mg/liter, reconstituted to 3.0 mg/liter at 1 hr, maintained 8 hr
[7] = in vitro profile: post-distribution peak 4 mg/liter, reconstituted at 1 hr to 0 mg/liter
[8] = in vitro profile: post-distribution peak 4 mg/liter, reconstituted at 1 hr to 2.0 mg/liter
[9] = in vitro profile: post-distribution peak 4 mg/liter, reconstituted at 1 hr to 2.5 mg/liter
[10] = in vitro profile: post-distribution peak 4 mg/liter, reconstituted at 1 hr to 3.0 mg/liter

Substance: gentamicin
- Outcome of exposure ([1]; each agent alone): complete kill or eradication was not achieved
- Time at which regrowth phase began ([1]; gentamicin bolus and infusion profiles, target Cpeak30 7 mg/l): 24.5 h
- Regrowth ([1]; gentamicin bolus and infusion profiles, target Cpeak30 16 mg/l): no regrowth
- Time at which early bactericidal effect was evident ([1]; gentamicin only, bolus profile Cpeak30 6 mg/l): ≤ 0.5 h
- AUC 0-49 h [2, 3]: 3.93 ± 0.33 µg·h/mL
- Cmax [2, 3]: 6120 ± 350 ng/mL
- Cmin [2, 3]: 0 ng/mL
- AUC 0-49 h [2, 4]: 124.98 ± 3.08 µg·h/mL
- Cmax [2, 4]: 6230 ± 270 ng/mL
- Cmin [2, 4]: 2450 ± 240 ng/mL
- AUC 0-49 h [2, 5]: 120.99 ± 6.05 µg·h/mL
- Cmax [2, 5]: 6300 ± 450 ng/mL
- Cmin [2, 5]: 2370 ± 340 ng/mL
- AUC 0-49 h [2, 6]: 119.78 ± 8.84 µg·h/mL
- Cmax [2, 6]: 6370 ± 220 ng/mL
- Cmin [2, 6]: 2350 ± 190 ng/mL
- AUC 0-49 h [2, 7]: 3.97 ± 0.09 µg·h/mL
- Cmax [2, 7]: 6220 ± 330 ng/mL
- Cmin [2, 7]: 0 ng/mL
- AUC 0-49 h [2, 8]: 102.66 ± 6.91 µg·h/mL
- Cmax [2, 8]: 6320 ± 250 ng/mL
- Cmin [2, 8]: 1930 ± 240 ng/mL
- AUC 0-49 h [2, 9]: 124.40 ± 4.27 µg·h/mL
- Cmax [2, 9]: 6230 ± 230 ng/mL
- Cmin [2, 9]: 2470 ± 310 ng/mL
- AUC 0-49 h [2, 10]: 153.43 ± 11.01 µg·h/mL
- Cmax [2, 10]: 6280 ± 370 ng/mL
- Cmin [2, 10]: 2880 ± 230 ng/mL
- BACTERIAL COUNTS (E. coli NCTC 10418; peak 4 mg/liter, reconstituted to 3.0 mg/liter at 1 hr, maintained 0 hr (control), 3 hr): 3.05 ± 0.33 log ^10 (CFU/mL)
- BACTERIAL COUNTS (E. coli NCTC 10418; peak 4 mg/liter, reconstituted to 3.0 mg/liter at 1 hr, maintained 0 hr (control), 11 hr): 8.89 ± 0.20 log ^10 (CFU/mL)
- BACTERIAL COUNTS (E. coli NCTC 10418; peak 4 mg/liter, reconstituted to 3.0 mg/liter at 1 hr, maintained 0 hr (control), 25 hr): 9.07 ± 0.12 log ^10 (CFU/mL)
- BACTERIAL COUNTS (E. coli NCTC 10418; peak 4 mg/liter, reconstituted to 3.0 mg/liter at 1 hr, maintained 0 hr (control), 49 hr): 9.01 ± 0.06 log ^10 (CFU/mL)
- BACTERIAL COUNTS (E. coli NCTC 10418; peak 4 mg/liter, reconstituted to 3.0 mg/liter at 1 hr, maintained 2 hr, 3 hr): 0.17 ± 0.41 log ^10 (CFU/mL)
- BACTERIAL COUNTS (E. coli NCTC 10418; peak 4 mg/liter, reconstituted to 3.0 mg/liter at 1 hr, maintained 2 hr, 11 hr): 0.55 ± 0.61 log ^10 (CFU/mL)
- BACTERIAL COUNTS (E. coli NCTC 10418; peak 4 mg/liter, reconstituted to 3.0 mg/liter at 1 hr, maintained 2 hr, 25 hr): 7.95 ± 0.54 log ^10 (CFU/mL)
- BACTERIAL COUNTS (E. coli NCTC 10418; peak 4 mg/liter, reconstituted to 3.0 mg/liter at 1 hr, maintained 2 hr, 49 hr): 8.89 ± 0.19 log ^10 (CFU/mL)
- BACTERIAL COUNTS (E. coli NCTC 10418; peak 4 mg/liter, reconstituted to 3.0 mg/liter at 1 hr, maintained 4 hr, 3 hr): 0.17 ± 0.41 log ^10 (CFU/mL)
- BACTERIAL COUNTS (E. coli NCTC 10418; peak 4 mg/liter, reconstituted to 3.0 mg/liter at 1 hr, maintained 4 hr, 11 hr): 0.17 ± 0.41 log ^10 (CFU/mL)
- BACTERIAL COUNTS (E. coli NCTC 10418; peak 4 mg/liter, reconstituted to 3.0 mg/liter at 1 hr, maintained 4 hr, 25 hr): 5.18 ± 4.02 log ^10 (CFU/mL)
- BACTERIAL COUNTS (E. coli NCTC 10418; peak 4 mg/liter, reconstituted to 3.0 mg/liter at 1 hr, maintained 4 hr, 49 hr): 5.99 ± 4.64 log ^10 (CFU/mL)
- BACTERIAL COUNTS (E. coli NCTC 10418; peak 4 mg/liter, reconstituted to 3.0 mg/liter at 1 hr, maintained 8 hr, 3 hr): 0.33 ± 0.52 log ^10 (CFU/mL)
- BACTERIAL COUNTS (E. coli NCTC 10418; peak 4 mg/liter, reconstituted to 3.0 mg/liter at 1 hr, maintained 8 hr, 11 hr): NGD
- BACTERIAL COUNTS (E. coli NCTC 10418; peak 4 mg/liter, reconstituted to 3.0 mg/liter at 1 hr, maintained 8 hr, 25 hr): NGD
- BACTERIAL COUNTS (E. coli NCTC 10418; peak 4 mg/liter, reconstituted to 3.0 mg/liter at 1 hr, maintained 8 hr, 49 hr): NGD
- BACTERIAL COUNTS (E. coli NCTC 10418; post-distribution peak 4 mg/liter, reconstituted at 1 hr to 0 mg/liter, 3 hr): 3.96 ± 0.70 log ^10 (CFU/mL)
- BACTERIAL COUNTS (E. coli NCTC 10418; post-distribution peak 4 mg/liter, reconstituted at 1 hr to 0 mg/liter, 11 hr): 9.24 ± 0.34 log ^10 (CFU/mL)
- BACTERIAL COUNTS (E. coli NCTC 10418; post-distribution peak 4 mg/liter, reconstituted at 1 hr to 0 mg/liter, 25 hr): 9.15 ± 0.17 log ^10 (CFU/mL)
- BACTERIAL COUNTS (E. coli NCTC 10418; post-distribution peak 4 mg/liter, reconstituted at 1 hr to 0 mg/liter, 49 hr): 8.93 ± 0.12 log ^10 (CFU/mL)
- BACTERIAL COUNTS (E. coli NCTC 10418; post-distribution peak 4 mg/liter, reconstituted at 1 hr to 2.0 mg/liter, 3 hr): 1.92 ± 1.21 log ^10 (CFU/mL)
- BACTERIAL COUNTS (E. coli NCTC 10418; post-distribution peak 4 mg/liter, reconstituted at 1 hr to 2.0 mg/liter, 11 hr): 7.76 ± 1.06 log ^10 (CFU/mL)
- BACTERIAL COUNTS (E. coli NCTC 10418; post-distribution peak 4 mg/liter, reconstituted at 1 hr to 2.0 mg/liter, 25 hr): 8.69 ± 0.63 log ^10 (CFU/mL)
- BACTERIAL COUNTS (E. coli NCTC 10418; post-distribution peak 4 mg/liter, reconstituted at 1 hr to 2.0 mg/liter, 49 hr): 9.34 ± 0.27 log ^10 (CFU/mL)
- BACTERIAL COUNTS (E. coli NCTC 10418; post-distribution peak 4 mg/liter, reconstituted at 1 hr to 2.5 mg/liter, 3 hr): 0.33 ± 0.52 log ^10 (CFU/mL)
- BACTERIAL COUNTS (E. coli NCTC 10418; post-distribution peak 4 mg/liter, reconstituted at 1 hr to 2.5 mg/liter, 11 hr): 0.33 ± 0.52 log ^10 (CFU/mL)
- BACTERIAL COUNTS (E. coli NCTC 10418; post-distribution peak 4 mg/liter, reconstituted at 1 hr to 2.5 mg/liter, 25 hr): 4.85 ± 3.82 log ^10 (CFU/mL)
- BACTERIAL COUNTS (E. coli NCTC 10418; post-distribution peak 4 mg/liter, reconstituted at 1 hr to 2.5 mg/liter, 49 hr): 5.98 ± 4.63 log ^10 (CFU/mL)
- BACTERIAL COUNTS (E. coli NCTC 10418; post-distribution peak 4 mg/liter, reconstituted at 1 hr to 3.0 mg/liter, 3 hr): 0.33 ± 0.52 log ^10 (CFU/mL)
- BACTERIAL COUNTS (E. coli NCTC 10418; post-distribution peak 4 mg/liter, reconstituted at 1 hr to 3.0 mg/liter, 11 hr): NGD
- BACTERIAL COUNTS (E. coli NCTC 10418; post-distribution peak 4 mg/liter, reconstituted at 1 hr to 3.0 mg/liter, 25 hr): NGD
- BACTERIAL COUNTS (E. coli NCTC 10418; post-distribution peak 4 mg/liter, reconstituted at 1 hr to 3.0 mg/liter, 49 hr): NGD
